The target of one experiment is T1, EGFR(E746-A750del) (Homo sapiens, UniProt P00533, DEL746-750).
T1 construct: purchased Eurofins DiscoverX KINOMEscan
The experiment in a line: KINOMEscan 1 μM, EGFR(E746-A750del). It counts as binding. The settings on record: 1000 nM; Entrez EGFR; read-out: Percent Control. The text has this: (§1) Supplement cells-12-00287-s001.zip/File S2. KinomeScan data for the CAMKK2 probe and negative control.xlsx, sheet "SGC-CAMKK2-1" | column: Percent Control

A further experiment has as its target T2, KIT-autoinhibited (Homo sapiens, UniProt P10721).
T2 construct: purchased Eurofins DiscoverX KINOMEscan
Briefly: KINOMEscan 1 μM, KIT-autoinhibited. It counts as binding. As to conditions: 1000 nM; Entrez KIT; read-out: Percent Control.
Excerpt: as §1

The target of the next experiment is T3, SRMS (Homo sapiens, UniProt Q9H3Y6).
T3 construct: purchased Eurofins DiscoverX KINOMEscan
The experiment in a line: DiscoverX KINOMEscan binding assay at 1 μM, SRMS. As to conditions: Compound Concentration 1000 nM, read-out: Percent Control.
Excerpt: as §1

The next experiment deals with T4, GRK2 (Homo sapiens, UniProt P25098).
T4 construct: purchased Eurofins DiscoverX KINOMEscan
T4 sequence (P25098 whole entry): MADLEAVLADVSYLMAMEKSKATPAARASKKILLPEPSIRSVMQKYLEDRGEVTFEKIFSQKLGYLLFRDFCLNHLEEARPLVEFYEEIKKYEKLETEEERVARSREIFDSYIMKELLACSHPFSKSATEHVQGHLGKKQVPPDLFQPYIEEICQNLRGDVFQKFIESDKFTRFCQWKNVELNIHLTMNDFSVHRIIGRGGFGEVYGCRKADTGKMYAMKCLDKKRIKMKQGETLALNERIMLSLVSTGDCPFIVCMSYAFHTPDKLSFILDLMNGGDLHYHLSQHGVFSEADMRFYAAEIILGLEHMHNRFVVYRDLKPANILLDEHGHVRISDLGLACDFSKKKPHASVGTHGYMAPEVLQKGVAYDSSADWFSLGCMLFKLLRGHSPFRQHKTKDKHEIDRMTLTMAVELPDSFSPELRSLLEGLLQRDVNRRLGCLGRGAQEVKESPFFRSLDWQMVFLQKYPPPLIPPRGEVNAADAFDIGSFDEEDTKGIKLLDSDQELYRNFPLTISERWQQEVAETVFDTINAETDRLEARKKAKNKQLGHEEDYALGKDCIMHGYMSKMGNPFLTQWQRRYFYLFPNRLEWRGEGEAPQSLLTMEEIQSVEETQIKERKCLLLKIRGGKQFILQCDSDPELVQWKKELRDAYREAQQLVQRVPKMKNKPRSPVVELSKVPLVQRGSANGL
The experiment in a line: KINOMEscan 1 μM, GRK2. The experiment is classed as binding. As to conditions: 1000 nM; Entrez ADRBK1; read-out: Percent Control.
Excerpt: as §1

Another experiment deals with T5, DMPK2 (Homo sapiens, UniProt Q6DT37).
T5 construct: purchased Eurofins DiscoverX KINOMEscan
The experiment in a line: KINOMEscan 1 μM, DMPK2. As to conditions: 1000 nM; Entrez CDC42BPG; read-out: Percent Control. It counts as binding.
Excerpt: as §1

A further experiment concerns the target T6, BUB1 (Homo sapiens, UniProt O43683).
T6 construct: purchased Eurofins DiscoverX KINOMEscan
Briefly: KINOMEscan 1 μM, BUB1. It counts as binding. The settings on record: 1000 nM; Entrez BUB1; read-out: Percent Control.
Excerpt: as §1

The next experiment addresses T7, EPHB2 (Homo sapiens, UniProt P29323).
T7 construct: purchased Eurofins DiscoverX KINOMEscan
The experiment in a line: KINOMEscan 1 μM, EPHB2. The experiment is classed as binding. As to conditions: 1000 nM; Entrez EPHB2; read-out: Percent Control.
Excerpt: as §1

Another experiment concerns the target T8, ERN1 (Homo sapiens, UniProt O75460).
T8 construct: purchased Eurofins DiscoverX KINOMEscan
The experiment in a line: KINOMEscan 1 μM, ERN1. The experiment is classed as binding. The settings on record: 1000 nM; Entrez ERN1; read-out: Percent Control.
Excerpt: as §1

Another experiment addresses T9, PKMYT1 (Homo sapiens, UniProt Q99640).
T9 construct: purchased Eurofins DiscoverX KINOMEscan
The experiment in a line: KINOMEscan 1 μM, PKMYT1. It counts as binding. The settings on record: 1000 nM; Entrez PKMYT1; read-out: Percent Control.
Excerpt: as §1

The target of another experiment is T10, EPHA2 (Homo sapiens, UniProt P29317).
T10 construct: purchased Eurofins DiscoverX KINOMEscan
The experiment in a line: KINOMEscan 1 μM, EPHA2. It counts as binding. As to conditions: 1000 nM; Entrez EPHA2; read-out: Percent Control.
Excerpt: as §1

For a further experiment, the target named is T11, MYLK2 (Homo sapiens, UniProt Q9H1R3).
T11 construct: purchased Eurofins DiscoverX KINOMEscan
The experiment in a line: KINOMEscan 1 μM, MYLK2. It counts as binding. The settings on record: 1000 nM; Entrez MYLK2; read-out: Percent Control.
Excerpt: as §1

The target of another experiment is T12, MKK7 (Homo sapiens, UniProt O14733).
T12 construct: purchased Eurofins DiscoverX KINOMEscan
The experiment in a line: KINOMEscan 1 μM, MKK7. It counts as binding. The settings on record: 1000 nM; Entrez MAP2K7; read-out: Percent Control.
Excerpt: as §1

The target in a further experiment is T13, ROCK2 (Homo sapiens, UniProt O75116).
T13 construct: purchased Eurofins DiscoverX KINOMEscan
Briefly: DiscoverX KINOMEscan binding assay at 1 μM, ROCK2. As to conditions: Compound Concentration 1000 nM, read-out: Percent Control.
Excerpt: as §1

The next experiment deals with T14, WNK4 (Homo sapiens, UniProt Q96J92).
T14 construct: purchased Eurofins DiscoverX KINOMEscan
The experiment in a line: DiscoverX KINOMEscan binding assay at 1 μM, WNK4. As to conditions: Compound Concentration 1000 nM, read-out: Percent Control.
Excerpt: as §1

The next experiment deals with T15, STK35 (Homo sapiens, UniProt Q8TDR2).
T15 construct: purchased Eurofins DiscoverX KINOMEscan
The experiment in a line: KINOMEscan 1 μM, STK35. It counts as binding. As to conditions: 1000 nM; Entrez STK35; read-out: Percent Control.
Excerpt: as §1

The target in the next experiment is T16, TRKC (Homo sapiens, UniProt Q16288).
T16 construct: purchased Eurofins DiscoverX KINOMEscan
The experiment in a line: KINOMEscan 1 μM, TRKC. The experiment is classed as binding. The settings on record: 1000 nM; Entrez NTRK3; read-out: Percent Control.
Excerpt: as §1

For a further experiment, the target named is T17, TBK1 (Homo sapiens, UniProt Q9UHD2).
T17 construct: purchased Eurofins DiscoverX KINOMEscan
The experiment in a line: KINOMEscan 1 μM, TBK1. It counts as binding. As to conditions: 1000 nM; Entrez TBK1; read-out: Percent Control.
Excerpt: as §1

The target of experiment [1] is T18, ABL1(T315I)-phosphorylated (Homo sapiens, UniProt P00519, T315I).
T18 construct: purchased Eurofins DiscoverX KINOMEscan
The experiment in a line: KINOMEscan 1 μM, ABL1(T315I)-phosphorylated. It counts as binding. As to conditions: 1000 nM; Entrez ABL1; read-out: Percent Control.
Excerpt: as §1

Another experiment addresses T19, MYO3A (Homo sapiens, UniProt Q8NEV4).
T19 construct: purchased Eurofins DiscoverX KINOMEscan
The experiment in a line: KINOMEscan 1 μM, MYO3A. The experiment is classed as binding. As to conditions: 1000 nM; Entrez MYO3A; read-out: Percent Control.
Excerpt: as §1

Another experiment has as its target T20, RAF1 (Homo sapiens, UniProt P04049).
T20 construct: purchased Eurofins DiscoverX KINOMEscan
Briefly: DiscoverX KINOMEscan binding assay at 1 μM, RAF1. The settings on record: Compound Concentration 1000 nM, read-out: Percent Control.
Excerpt: as §1

Another experiment addresses T21, PIP5K1C (Homo sapiens, UniProt O60331).
T21 construct: purchased Eurofins DiscoverX KINOMEscan
Briefly: KINOMEscan 1 μM, PIP5K1C. The experiment is classed as binding. As to conditions: 1000 nM; Entrez PIP5K1C; read-out: Percent Control.
Excerpt: as §1

A further experiment concerns the target T22, PRKCD (Homo sapiens, UniProt Q05655).
T22 construct: purchased Eurofins DiscoverX KINOMEscan
Briefly: DiscoverX KINOMEscan binding assay at 1 μM, PRKCD. As to conditions: Compound Concentration 1000 nM, read-out: Percent Control.
Excerpt: as §1

The target of a further experiment is T23, ARK5 (Homo sapiens, UniProt O60285).
T23 construct: purchased Eurofins DiscoverX KINOMEscan
Briefly: KINOMEscan 1 μM, ARK5. It counts as binding. The settings on record: 1000 nM; Entrez NUAK1; read-out: Percent Control.
Excerpt: as §1

A further experiment deals with T24, CSNK2A2 (Homo sapiens, UniProt P19784).
T24 construct: purchased Eurofins DiscoverX KINOMEscan
T24 sequence (P19784 whole entry): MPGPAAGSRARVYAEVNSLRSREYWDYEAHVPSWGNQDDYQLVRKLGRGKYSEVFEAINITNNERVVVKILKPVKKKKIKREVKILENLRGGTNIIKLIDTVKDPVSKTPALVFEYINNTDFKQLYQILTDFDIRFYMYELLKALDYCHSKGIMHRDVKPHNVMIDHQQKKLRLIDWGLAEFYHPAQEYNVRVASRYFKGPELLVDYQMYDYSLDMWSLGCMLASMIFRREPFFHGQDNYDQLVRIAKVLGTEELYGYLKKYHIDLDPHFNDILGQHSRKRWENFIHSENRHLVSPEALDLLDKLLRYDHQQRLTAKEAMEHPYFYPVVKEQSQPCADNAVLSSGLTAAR
Briefly: KINOMEscan 1 μM, CSNK2A2. The settings on record: 1000 nM; Entrez CSNK2A2; read-out: Percent Control. The experiment is classed as binding.
Excerpt: as §1

The next experiment has as its target T25, CAMK2B (Homo sapiens, UniProt Q13554).
T25 construct: purchased Eurofins DiscoverX KINOMEscan
Briefly: KINOMEscan at 1 μM, CAMK2B. As to conditions: 1000 nM, read-out: Percent Control. It counts as binding. The text has this:
(§2) Supplement cells-12-00287-s001.zip/File S2. KinomeScan data for the CAMKK2 probe and negative control.xlsx, sheet "SGC-CAMKK2-1N" | column: Percent Control

The target in another experiment is T26, TNNI3K (Homo sapiens, UniProt Q59H18).
T26 construct: purchased Eurofins DiscoverX KINOMEscan
The experiment in a line: KINOMEscan at 1 μM, TNNI3K. The experiment is classed as binding. The settings on record: 1000 nM, read-out: Percent Control.
Excerpt: as §2

Another experiment has as its target T27, HUNK (Homo sapiens, UniProt P57058).
T27 construct: purchased Eurofins DiscoverX KINOMEscan
The experiment in a line: KINOMEscan at 1 μM, HUNK. As to conditions: 1000 nM, read-out: Percent Control. It counts as binding.
Excerpt: as §2

The next experiment deals with T28, GAK (Homo sapiens, UniProt O14976).
T28 construct: purchased Eurofins DiscoverX KINOMEscan
Briefly: KINOMEscan at 1 μM, GAK. The experiment is classed as binding. The settings on record: 1000 nM, read-out: Percent Control.
Excerpt: as §2

The next experiment concerns the target T29, DCAMKL1 (Homo sapiens, UniProt O15075).
T29 construct: purchased Eurofins DiscoverX KINOMEscan
Briefly: KINOMEscan at 1 μM, DCAMKL1. The experiment is classed as binding. The settings on record: 1000 nM, read-out: Percent Control.
Excerpt: as §2

The next experiment deals with T30, FER (Homo sapiens, UniProt P16591).
T30 construct: purchased Eurofins DiscoverX KINOMEscan
Briefly: KINOMEscan binding assay at 1 μM, FER. As to conditions: Compound Concentration 1000 nM; read-out: Percent Control.
Excerpt: as §2

The target of the next experiment is T31, QSK (Homo sapiens, UniProt Q9Y2K2).
T31 construct: purchased Eurofins DiscoverX KINOMEscan
T31 sequence (Q9Y2K2 whole entry): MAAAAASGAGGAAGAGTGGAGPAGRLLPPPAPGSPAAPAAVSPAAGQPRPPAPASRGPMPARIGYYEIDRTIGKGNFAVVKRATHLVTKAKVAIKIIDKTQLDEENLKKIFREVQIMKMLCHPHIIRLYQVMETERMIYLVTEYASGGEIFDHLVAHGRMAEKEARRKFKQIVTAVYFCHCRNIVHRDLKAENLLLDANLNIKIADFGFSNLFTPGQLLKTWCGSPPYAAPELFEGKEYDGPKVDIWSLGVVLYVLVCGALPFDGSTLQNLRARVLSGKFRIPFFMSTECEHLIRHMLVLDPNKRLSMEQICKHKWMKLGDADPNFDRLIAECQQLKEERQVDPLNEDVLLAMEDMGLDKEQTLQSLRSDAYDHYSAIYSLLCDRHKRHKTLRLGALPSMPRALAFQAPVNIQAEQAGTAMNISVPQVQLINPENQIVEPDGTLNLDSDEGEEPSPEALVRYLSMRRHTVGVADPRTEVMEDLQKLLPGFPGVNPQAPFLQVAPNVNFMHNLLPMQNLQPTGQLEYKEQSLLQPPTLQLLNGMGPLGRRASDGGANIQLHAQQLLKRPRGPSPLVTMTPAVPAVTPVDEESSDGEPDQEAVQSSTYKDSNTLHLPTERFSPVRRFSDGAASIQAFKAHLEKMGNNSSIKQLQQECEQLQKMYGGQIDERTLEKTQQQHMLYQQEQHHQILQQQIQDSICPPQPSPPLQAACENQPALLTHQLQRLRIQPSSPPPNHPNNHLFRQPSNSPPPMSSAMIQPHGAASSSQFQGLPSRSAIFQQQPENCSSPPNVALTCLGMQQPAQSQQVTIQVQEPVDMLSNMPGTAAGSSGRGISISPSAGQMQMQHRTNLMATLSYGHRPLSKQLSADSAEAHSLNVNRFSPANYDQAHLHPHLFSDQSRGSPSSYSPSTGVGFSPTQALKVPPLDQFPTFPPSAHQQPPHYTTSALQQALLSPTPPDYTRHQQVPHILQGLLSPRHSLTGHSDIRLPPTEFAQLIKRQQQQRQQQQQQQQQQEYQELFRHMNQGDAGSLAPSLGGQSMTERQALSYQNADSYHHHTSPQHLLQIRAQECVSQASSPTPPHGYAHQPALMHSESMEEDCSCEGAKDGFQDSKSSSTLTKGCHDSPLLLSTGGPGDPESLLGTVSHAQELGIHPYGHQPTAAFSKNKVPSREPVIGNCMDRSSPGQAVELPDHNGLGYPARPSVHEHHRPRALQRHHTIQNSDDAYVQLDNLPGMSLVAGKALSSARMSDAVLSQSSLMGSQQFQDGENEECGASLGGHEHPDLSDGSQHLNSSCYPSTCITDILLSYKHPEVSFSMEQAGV
The experiment in a line: KINOMEscan at 1 μM, QSK. The experiment is classed as binding. As to conditions: 1000 nM, read-out: Percent Control.
Excerpt: as §2

In another experiment the target is T32, PRKG1 (Homo sapiens, UniProt Q13976).
T32 construct: purchased Eurofins DiscoverX KINOMEscan
The experiment in a line: KINOMEscan binding assay at 1 μM, PRKG1. The settings on record: Compound Concentration 1000 nM; read-out: Percent Control.
Excerpt: as §2

Another experiment concerns the target T33, SIK2 (Homo sapiens, UniProt Q9H0K1).
T33 construct: purchased Eurofins DiscoverX KINOMEscan
Briefly: KINOMEscan at 1 μM, SIK2. The experiment is classed as binding. The settings on record: 1000 nM, read-out: Percent Control.
Excerpt: as §2

The structures appear in SMILES notation.

The values that follow come from PMC9856672, “SGC-CAMKK2-1: A Chemical Probe for CAMKK2” (Cells, 2023).

T2 sequence (P10721 26-976): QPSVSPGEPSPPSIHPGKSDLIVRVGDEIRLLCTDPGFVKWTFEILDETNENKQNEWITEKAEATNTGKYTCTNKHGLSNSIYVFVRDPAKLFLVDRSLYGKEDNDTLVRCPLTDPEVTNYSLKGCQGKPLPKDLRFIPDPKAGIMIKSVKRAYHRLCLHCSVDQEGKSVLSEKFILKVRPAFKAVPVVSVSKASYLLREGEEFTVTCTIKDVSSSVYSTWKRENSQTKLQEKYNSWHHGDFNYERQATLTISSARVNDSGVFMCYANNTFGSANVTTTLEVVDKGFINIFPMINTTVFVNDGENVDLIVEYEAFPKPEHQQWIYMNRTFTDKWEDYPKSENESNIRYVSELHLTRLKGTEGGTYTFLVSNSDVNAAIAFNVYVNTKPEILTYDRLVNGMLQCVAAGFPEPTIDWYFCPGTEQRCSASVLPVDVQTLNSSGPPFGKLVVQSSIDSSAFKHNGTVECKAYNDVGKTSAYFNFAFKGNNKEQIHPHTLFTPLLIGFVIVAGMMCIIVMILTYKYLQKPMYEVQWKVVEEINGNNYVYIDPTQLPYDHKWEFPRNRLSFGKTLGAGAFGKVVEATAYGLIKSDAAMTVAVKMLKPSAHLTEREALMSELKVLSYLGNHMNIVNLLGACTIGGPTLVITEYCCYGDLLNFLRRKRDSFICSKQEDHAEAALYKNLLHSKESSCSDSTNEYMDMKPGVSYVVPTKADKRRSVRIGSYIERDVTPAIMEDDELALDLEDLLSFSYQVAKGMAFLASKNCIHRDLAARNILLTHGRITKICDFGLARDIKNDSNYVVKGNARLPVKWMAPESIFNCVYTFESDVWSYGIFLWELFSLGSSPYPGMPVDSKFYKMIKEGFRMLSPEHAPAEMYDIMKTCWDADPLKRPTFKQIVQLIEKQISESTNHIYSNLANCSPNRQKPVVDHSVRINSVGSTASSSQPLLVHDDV
T33 sequence (Q9H0K1 whole entry): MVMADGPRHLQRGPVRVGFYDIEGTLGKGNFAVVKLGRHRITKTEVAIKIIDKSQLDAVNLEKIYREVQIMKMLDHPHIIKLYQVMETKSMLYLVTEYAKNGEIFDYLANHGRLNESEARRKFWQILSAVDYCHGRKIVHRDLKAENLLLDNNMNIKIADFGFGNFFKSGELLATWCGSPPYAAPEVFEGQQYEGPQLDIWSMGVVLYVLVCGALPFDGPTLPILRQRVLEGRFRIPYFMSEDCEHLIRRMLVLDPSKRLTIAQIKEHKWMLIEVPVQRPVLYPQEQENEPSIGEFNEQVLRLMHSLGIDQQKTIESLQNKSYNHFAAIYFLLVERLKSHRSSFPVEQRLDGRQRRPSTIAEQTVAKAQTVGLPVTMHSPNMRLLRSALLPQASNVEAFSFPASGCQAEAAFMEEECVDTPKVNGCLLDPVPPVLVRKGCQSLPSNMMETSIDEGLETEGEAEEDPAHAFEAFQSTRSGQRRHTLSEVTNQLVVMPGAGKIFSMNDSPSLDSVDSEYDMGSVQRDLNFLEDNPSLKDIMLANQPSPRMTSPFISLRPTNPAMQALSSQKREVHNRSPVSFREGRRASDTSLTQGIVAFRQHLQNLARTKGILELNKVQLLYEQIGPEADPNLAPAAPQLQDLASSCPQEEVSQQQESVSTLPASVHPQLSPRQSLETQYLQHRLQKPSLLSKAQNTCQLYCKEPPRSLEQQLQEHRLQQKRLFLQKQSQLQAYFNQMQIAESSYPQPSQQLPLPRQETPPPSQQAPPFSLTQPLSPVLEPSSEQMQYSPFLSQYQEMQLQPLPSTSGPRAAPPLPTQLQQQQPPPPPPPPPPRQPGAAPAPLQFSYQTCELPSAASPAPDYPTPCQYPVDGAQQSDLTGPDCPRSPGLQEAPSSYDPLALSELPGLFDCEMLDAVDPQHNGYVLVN
T20 sequence (P04049 whole entry): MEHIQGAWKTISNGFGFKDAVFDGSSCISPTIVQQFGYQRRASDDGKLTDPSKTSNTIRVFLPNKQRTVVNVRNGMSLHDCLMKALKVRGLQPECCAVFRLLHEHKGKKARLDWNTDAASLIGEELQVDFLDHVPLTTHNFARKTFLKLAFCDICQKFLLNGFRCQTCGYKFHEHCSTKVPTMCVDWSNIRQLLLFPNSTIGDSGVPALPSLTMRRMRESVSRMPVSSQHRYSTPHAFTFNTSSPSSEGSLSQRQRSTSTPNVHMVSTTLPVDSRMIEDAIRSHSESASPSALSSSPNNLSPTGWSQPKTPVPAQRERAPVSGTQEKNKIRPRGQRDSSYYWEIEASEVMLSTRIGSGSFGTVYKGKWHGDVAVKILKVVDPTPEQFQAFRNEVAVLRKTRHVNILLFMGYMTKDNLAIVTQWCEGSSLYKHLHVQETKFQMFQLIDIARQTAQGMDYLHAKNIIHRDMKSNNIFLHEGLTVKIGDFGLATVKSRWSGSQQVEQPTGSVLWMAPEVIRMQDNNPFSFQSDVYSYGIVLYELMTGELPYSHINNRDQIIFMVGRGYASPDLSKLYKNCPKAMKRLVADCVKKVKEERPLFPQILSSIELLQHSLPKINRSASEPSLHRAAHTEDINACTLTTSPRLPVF

As for `Cc1cccc(-c2cnc3occ(-c4ccc(C(=O)O)c(C5CCCC5)c4)c3c2)c1` [SGC-CAMKK2-1 (YL-36)], the remaining binding at 1 µM on EGFR(E746-A750del) came to 100%; on KIT-autoinhibited, 100%; at SRMS, 100%; on GRK2, 100%; at DMPK2, 97%; at BUB1, 100%. Also, the remaining binding at 1 µM at EPHB2 amounted to 100%; on ERN1, 100%; on PKMYT1, 99%; on EPHA2, 100%; at MYLK2, 100%; at MKK7 it was 100%. Further, the remaining binding at 1 µM turned out to be 100% on ROCK2; 100% on WNK4; 73% at STK35; 81% at TRKC; 94% at TBK1; 100% in experiment [1]. Further, the remaining binding at 1 µM amounted to 100% at MYO3A; 100% on RAF1; 99% at PIP5K1C; 100% on PRKCD; 100% at ARK5; 100% on CSNK2A2.
In the case of `O=C(O)c1ccc(-c2coc3ncc(-c4ccccc4)cc23)cc1Cl` [SGC-CAMKK2-1N (UNC-YL-83)], the remaining binding at 1 µM at CAMK2B was determined as 69%; at TNNI3K, 95%; on HUNK, 87%; on GAK, 88%; at DCAMKL1, 100%; at FER, 100%. For the same molecule, the remaining binding at 1 µM on QSK was determined as 46%; at PRKG1 it was 100%; on SIK2, 93%.
